For assay [1], the system named is rabbit aortal strip, agonist TXA2 mimetic agent U46619. Kind of assay: rabbit aortal strip model, test (a). More on the design: species or system isolated tissue. From the text: (a) The rabbit aortal strip model devised by Piper and Vane (Nature, 1969, 223, 29-35) using as agonist the TXA2 mimetic agent known as U46619 (R. L. Jones et alia in "Chemistry, Biochemistry and Pharmacological Activity of Prostanoids", eds. S. M. Roberts and F. Scheinmann, at p.211; Pergamon Press, 1979);

Assay [2] deals with bronchoconstriction induced by TXA2 mimetic agent U46619. Kind of assay: bronchoconstriction test, Konzett-Rossler guinea-pig model, test (c). The class given is in vivo. The settings on record: some 3 hours following an oral dose of 5mg/kg, U46619 i.v. 1-1.5 μg/kg. On the procedure:
(c) a bronchoconstriction test involving measuring the inhibition by a test compound of the bronchoconstriction induced in the Konzett-Rossler guinea-pig model (as modified by Collier and James, Brit. J. Pharmacol., 1967, 30, 283-307) by intravenous administration of the TXA2 mimetic agent, U46619 at 1-1.5 μg/kg.

The test system of assay [3] is hypertensive effect of TXA2 mimetic agent U46619. Nature of the assay: U46619-induced hypertensive effect in anaesthetised rats, test (d). The class given is in vivo, rats (Alderley Park strain). On the procedure: (d) Male rats (Alderley Park strain) are anaesthetised with sodium pentobarbital and blood pressure is monitored at the carotid artery. The TXA2 mimetic agent U46619 is administered intravenously via the jugular vein and an ED50 (dose necessary to produce 50% of the maximum hypertensive effect) is established (n=3). The ED50 for U46619 is approximately 5 μg/kg. A test compound is then administered either intravenously via the jugular vein or orally via a cannula directly into the stomach and the animal challenged with an ED50 dose of U46619, five minutes after dosing with test compound and then successively every ten minutes until the hypertensive effect of U46619 is no longer blocked.

Experimental findings from patent US4704399A, “1,3-dioxan-4-ylalkenoic acids” (Imperial Chemical Industries PLC, priority 1983, dated 1987) are described below.

The structures appear in SMILES notation.

What is called pA2 is the negative logarithm of the molar antagonist concentration that doubles the agonist concentration needed for the same response. The term ED50 denotes the midpoint of the dose-response relation.

Turning to `CCC[C@H]1OC[C@H](c2ccccc2C)[C@@H](CCCCCCC(=O)O)O1` (relative stereo) [Example 12, 7-([2,4-cis,4,5-trans]-2-n-propyl-5-o-tolyl-1,3-dioxan-4-yl)heptanoic acid], in assay [1], the pA2 came out at 6.7. The reduction of bronchoconstriction entry in assay [2] is reported as “significant reduction of bronchoconstriction”. Besides, in assay [3] (test (d), 80-90 minutes following an oral dose of 50 mg./kg., challenge with ED50 dose of U46619), the “inhibition of the hypertensive effect” value is recorded as “complete inhibition of the hypertensive effect”.

For the molecule `CCCCC[C@H](O)/C=C/[C@@H]1[C@@H](C/C=C\CCCC(=O)O)[C@H]2CO[C@@H]1C2` [Example U46619, reference compound], in assay [3] (Rattus norvegicus, iv, intravenously via the jugular vein, anaesthetised male rats, n=3, read-out: ED50 (dose necessary to produce 50% of the maximum hypertensive effect)), the ED50 was about 5 µg/kg.
